What all share (test): Post-emergence herbicidal effect
What all share (type): in vivo
Holding throughout (settings): 80 g ai/ha, visual score after about 3 weeks

Assay [1] concerns Setaria viridis. The procedure: (§1) [table] Seeds of monocotyledonous and dicotyledonous weed and crop plants are laid out in sandy loam soil in wood-fibre pots, covered with soil and cultivated in a greenhouse under good growth conditions. 2 to 3 weeks after sowing, the test plants are treated at the one-leaf stage. The compounds of the invention, formulated in the form of wettable powders (WP) or as emulsion concentrates (EC), are then sprayed onto the green parts of the plants as aqueous suspension or emulsion at a water application rate equating to 600 to 800 L/ha with addition of 0.2% wetting agent. After the test plants have been left to stand in the greenhouse under optimal growth conditions for about 3 weeks, the action of the preparations is assessed visually in comparison to untreated controls (herbicidal action in percent (%): 100% activity=the plants have died, 0% activity=like control plants).

In assay [2] the test system is Alopecurus myosuroides. As for the experimental part:
as §1

For assay [3], the system named is Hordeum murinum. As for the experimental part:
as §1

The test system of assay [4] is Echinochloa crus-galli. The procedure: as §1
The test system of assay [5] is Lolium rigidum. As for the experimental part: as §1
The subject of assay [6] is Digitaria sanguinalis. As for the experimental part:
as §1

Assay [7] concerns Avena fatua. As for the experimental part: as §1

On to `C=CCOC1CCC2(CC1)NC(=O)C(c1c(C)cc(C#CC)cc1OC)=C2OC(=O)C(C)C` (stereo not shown) [Example Q5], for which the “Post-emergence activity SETVI” value in assay [1] worked out at 100%. Also, the “Post-emergence activity ALOMY” value in assay [2] is 100%. Besides, in assay [3], the “Post-emergence activity HORMU” value worked out at 90%. Besides, the “Post-emergence activity ECHCG” value in assay [4] worked out at 100%. The “Post-emergence activity LOLRI” value in assay [5] is given as 100%. Besides, the “Post-emergence activity DIGSA” value in assay [6] was determined as 100%.
Take `CC#Cc1cc(C)c(C2=C(OC(=O)OCC)C3(CCCC(OCCC)C3)NC2=O)c(OC)c1` (stereo not shown) [Example P3]: the “Post-emergence activity SETVI” value in assay [1] was 100%. The “Post-emergence activity ALOMY” value in assay [2] came out at 100%. In addition, the “Post-emergence activity HORMU” value in assay [3] is recorded as 100%. Besides, the “Post-emergence activity ECHCG” value in assay [4] is 100%. Also, the “Post-emergence activity LOLRI” value in assay [5] amounted to 100%. Moreover, in assay [6], the “Post-emergence activity DIGSA” value worked out at 100%. Further, the “Post-emergence activity AVEFA” value in assay [7] came to 100%.
Turning to `C=CCOC1CCC2(CC1)NC(=O)C(c1c(C)cc(C#CC)cc1OC)=C2OC(=O)OC` (stereo not shown) [Example Q3], in assay [1], the “Post-emergence activity SETVI” value came to 100%. The “Post-emergence activity ALOMY” value in assay [2] stood at 100%. Moreover, the “Post-emergence activity HORMU” value in assay [3] was found to be 100%. In assay [4], the “Post-emergence activity ECHCG” value came to 100%. Further, the “Post-emergence activity LOLRI” value in assay [5] is given as 100%. Moreover, in assay [6], the “Post-emergence activity DIGSA” value is on record as 90%. Also, in assay [7], the “Post-emergence activity AVEFA” value stood at 80%.
With `CC#Cc1cc(C)c(C2=C(OC(=O)CC)C3(CCCC(OCCC)C3)NC2=O)c(OC)c1` (stereo not shown) [Example P5], the “Post-emergence activity SETVI” value in assay [1] is 100%. The “Post-emergence activity ALOMY” value in assay [2] was 100%. Besides, the “Post-emergence activity HORMU” value in assay [3] was found to be 100%. In addition, in assay [4], the “Post-emergence activity ECHCG” value came out at 100%. In addition, the “Post-emergence activity LOLRI” value in assay [5] is reported as 100%. Besides, the “Post-emergence activity DIGSA” value in assay [6] came out at 100%. Also, in assay [7], the “Post-emergence activity AVEFA” value is given as 100%.
On to `CC#Cc1cc(C)c(C2=C(OC(=O)C(C)C)C3(CCCC(OCCC)C3)NC2=O)c(OC)c1` (stereo not shown) [Example P4], for which, in assay [1], the “Post-emergence activity SETVI” value is given as 100%. Moreover, the “Post-emergence activity ALOMY” value in assay [2] is recorded as 100%. The “Post-emergence activity HORMU” value in assay [3] turned out to be 100%. The “Post-emergence activity ECHCG” value in assay [4] came out at 100%. Further, the “Post-emergence activity LOLRI” value in assay [5] turned out to be 100%. Besides, the “Post-emergence activity DIGSA” value in assay [6] is 90%. Moreover, in assay [7], the “Post-emergence activity AVEFA” value was 100%.
With `CC#Cc1cc(C)c(C2=C(O)C3(CCCC(OCCC)C3)NC2=O)c(OC)c1` (stereo not shown) [Example D1, 4-Hydroxy-3-[2-methoxy-6-methyl-4-(prop-1-yn-1-yl)phenyl]-7-propoxy-1-azaspiro[4.5]dec-3-en-2-one], the “Post-emergence activity SETVI” value in assay [1] came out at 100%. Besides, the “Post-emergence activity ALOMY” value in assay [2] came to 100%. The “Post-emergence activity HORMU” value in assay [3] worked out at 100%. Moreover, the “Post-emergence activity ECHCG” value in assay [4] was 100%. In addition, in assay [5], the “Post-emergence activity LOLRI” value came out at 100%. Also, the “Post-emergence activity DIGSA” value in assay [6] was determined as 100%. Besides, in assay [7], the “Post-emergence activity AVEFA” value amounted to 100%.
`C=CCOC1CCC2(CC1)NC(=O)C(c1c(C)cc(C#CC)cc1OC)=C2O` (stereo not shown) [Example D5]: in assay [1], the “Post-emergence activity SETVI” value is recorded as 100%. Besides, the “Post-emergence activity ALOMY” value in assay [2] is on record as 100%. For the same compound, the “Post-emergence activity HORMU” value in assay [3] worked out at 100%. Besides, the “Post-emergence activity ECHCG” value in assay [4] turned out to be 100%. For the same compound, the “Post-emergence activity LOLRI” value in assay [5] was determined as 100%. The “Post-emergence activity DIGSA” value in assay [6] amounted to 100%. The “Post-emergence activity AVEFA” value in assay [7] is 100%.
As to `CC#Cc1cc(C)c(C2=C(OC(=O)OC)C3(CCCC(OCCC)C3)NC2=O)c(OC)c1` (stereo not shown) [Example P2], the “Post-emergence activity SETVI” value in assay [1] is on record as 100%. Besides, in assay [2], the “Post-emergence activity ALOMY” value is listed as 100%. Moreover, the “Post-emergence activity HORMU” value in assay [3] turned out to be 100%. Moreover, the “Post-emergence activity ECHCG” value in assay [4] is 100%. For the same compound, the “Post-emergence activity LOLRI” value in assay [5] amounted to 100%. The “Post-emergence activity DIGSA” value in assay [6] was found to be 100%. Further, the “Post-emergence activity AVEFA” value in assay [7] was determined as 100%.

(Values after US20220177428A1, “SPECIFICALLY SUBSTITUTED 3-(2-ALKOXY-6-ALKYL-4-PROPINYLPHENYL)-3-PYRROLIN-2-ONES AND THEIR USE AS HERBICIDES” (Bayer Aktiengesellschaft, priority 2019, published 2022).)
